According to patent US20260374754A1, “N-((ISOQUINOLIN-6-YL)METHYL)-1H-PYRAZOLE-4-CARBOXAMIDE DERIVATIVES AS PLASMA KALLIKREIN INHIBITORS FOR THE TREATMENT OF HEREDITARY ANGIODEMA” (Takeda Pharmaceutical Company Limited, priority 2022, published 2026):

biological target: human activated kallikrein enzyme (Homo sapiens, UniProt P03952); assay: Inhibition of human activated plasma kallikrein, fluorogenic PFR-AMC substrate, 500 pM enzyme format; assay type: biochemical; settings: 500 pM activated kallikrein; 300 μM PFR-AMC; 30 min preincubation; 10 min room temperature; pH 7.5; read-out: Primary Dose Response Assay: Average EC50
How it was run: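 500 pM activated kallikrein preincubated 30 min at room temperature with inhibitors in pH 7.5 Tris/EDTA/NaCl buffer with PEG-400 and Triton X-100. Reaction started with 300 μM PFR-AMC, run 10 min at room temperature; AMC fluorescence read at ex 380/em 460 nm.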

human activated kallikrein enzyme, sequence (P03952 391-638 limits assumed): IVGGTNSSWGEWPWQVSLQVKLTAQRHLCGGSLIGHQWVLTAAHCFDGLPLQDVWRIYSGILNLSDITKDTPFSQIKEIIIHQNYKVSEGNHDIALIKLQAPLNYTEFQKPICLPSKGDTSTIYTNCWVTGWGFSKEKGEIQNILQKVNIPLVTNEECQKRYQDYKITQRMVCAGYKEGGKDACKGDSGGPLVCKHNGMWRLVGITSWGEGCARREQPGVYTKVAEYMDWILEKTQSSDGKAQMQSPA
human activated kallikrein enzyme, sequence (P03952 20-390 partner limits assumed): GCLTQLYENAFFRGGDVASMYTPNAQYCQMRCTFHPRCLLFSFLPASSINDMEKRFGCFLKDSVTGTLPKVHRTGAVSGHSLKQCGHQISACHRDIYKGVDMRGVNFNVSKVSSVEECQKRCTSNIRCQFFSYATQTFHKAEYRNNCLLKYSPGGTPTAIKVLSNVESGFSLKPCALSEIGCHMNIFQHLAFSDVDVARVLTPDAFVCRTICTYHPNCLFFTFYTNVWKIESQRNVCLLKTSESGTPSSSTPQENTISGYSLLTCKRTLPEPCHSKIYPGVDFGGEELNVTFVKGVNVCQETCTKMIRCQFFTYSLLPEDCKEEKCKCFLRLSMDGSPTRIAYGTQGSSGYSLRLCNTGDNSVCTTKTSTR

Structure (SMILES)	EC50 [nM]
Cc1cc2c(N)nccc2c(C)c1CNc1cc(OCc2ccc(Cn3cccc(C4CC4)c3=O)cc2)cnn1 [Example 437, 1-(4-(((6-(((1-amino-5,7-dimethylisoquinolin-6-yl)methyl)amino)pyridazin-4-yl)oxy)methyl)benzyl)-3-cyclopropylpyridin-2(1H)-one]	< 1
Cc1cc2c(N)nccc2c(C)c1CNc1cc(NCc2ccc(Cn3cccn3)cc2)cnn1 [Example 447, N^5-(4-((1H-pyrazol-1-yl)methyl)benzyl)-N^3-((1-amino-5,7-dimethylisoquinolin-6-yl)methyl)pyridazine-3,5-diamine]	< 1
Cc1cc2c(N)nccc2c(C)c1CNc1cc(C(O)c2cn3cc(C4CC4)ccc3n2)ccn1 (stereo not shown) [Example 453, (2-(((1-amino-5,7-dimethylisoquinolin-6-yl)methyl)amino)pyridin-4-yl)(6-cyclopropylimidazo[1,2-a]pyridin-2-yl)methanol]	< 1
Cc1cc2c(N)nccc2c(C)c1CNc1cc(OCc2cn3cc(C4CC4)cnc3n2)nc(C(=O)O)n1 [Example 488, 4-(((1-amino-5,7-dimethylisoquinolin-6-yl)methyl)amino)-6-((6-cyclopropylimidazo[1,2-a]pyrimidin-2-yl)methoxy)pyrimidine-2-carboxylic acid]	< 1
CCOC(=O)c1nc(NCc2c(C)cc3c(N)nccc3c2C)cc(OCc2cn3cc(C4CC4)cnc3n2)n1 [Example 489, ethyl 4-(((1-amino-5,7-dimethylisoquinolin-6-yl)methyl)amino)-6-((6-cyclopropylimidazo[1,2-a]pyrimidin-2-yl)methoxy)pyrimidine-2-carboxylate]	< 1
Cc1cc2c(N)nccc2c(C)c1CNS(=O)(=O)c1cnn(Cc2cn3cc(C4CC4)ccc3n2)c1 [Example 490, N-((1-amino-5,7-dimethylisoquinolin-6-yl)methyl)-1-((6-cyclopropylimidazo[1,2-a]pyridin-2-yl)methyl)-1H-pyrazole-4-sulfonamide]	10 to 100
Cc1cc2c(N)nccc2c(C)c1CNS(=O)(=O)c1cn(Cc2cn3cc(C4CC4)ccc3n2)nn1 [Example 491, N-((1-amino-5,7-dimethylisoquinolin-6-yl)methyl)-1-((6-cyclopropylimidazo[1,2-a]pyridin-2-yl)methyl)-1H-1,2,3-triazole-4-sulfonamide]	10 to 100
Cc1cc2c(N)nccc2c(C)c1CNc1nccc(OCc2cn3cc(C4CC4)ccc3n2)n1 [Example 492, 6-(((4-((6-cyclopropylimidazo[1,2-a]pyridin-2-yl)methoxy)pyrimidin-2-yl)amino)methyl)-5,7-dimethylisoquinolin-1-amine]	1 to 10
Cc1cc2c(N)nccc2c(C)c1CN1C(=O)c2ncc(OCc3cn4cc(C5CC5)ccc4n3)cc21 [Example 494, 7-((1-amino-5,7-dimethylisoquinolin-6-yl)methyl)-4-((6-cyclopropylimidazo[1,2-a]pyridin-2-yl)methoxy)-2,7-diazabicyclo[4.2.0]octa-1,3,5-trien-8-one]	> 1000
Cc1cc2c(N)nccc2c(C)c1CNc1cc(OCc2cn3cc(C4CC4)ccc3n2)cnc1C(=O)O [Example 495, 3-(((1-amino-5,7-dimethylisoquinolin-6-yl)methyl)amino)-5-((6-cyclopropylimidazo[1,2-a]pyridin-2-yl)methoxy)picolinic acid]	> 1000
Cc1cc2c(N)nccc2c(C)c1CN1C(=O)c2ncc(NCc3cn4cc(C5CC5)ccc4n3)cc21 [Example 496, 7-((1-amino-5,7-dimethylisoquinolin-6-yl)methyl)-4-(((6-cyclopropylimidazo[1,2-a]pyridin-2-yl)methyl)amino)-2,7-diazabicyclo[4.2.0]octa-1,3,5-trien-8-one]	100 to 1000
Cc1cc2c(N)nccc2c(C)c1CNc1cc(NCc2cn3cc(C4CC4)ccc3n2)cnc1C(=O)O [Example 497, 3-(((1-amino-5,7-dimethylisoquinolin-6-yl)methyl)amino)-5-(((6-cyclopropylimidazo[1,2-a]pyridin-2-yl)methyl)amino)picolinic acid]	> 1000
Cc1cc2c(Nc3cc4c(cn3)nnn4Cc3cn4cc(C5CC5)ccc4n3)nccc2c(C)c1CN [Example 502, 6-((l2-azanyl)methyl)-N-(1-((6-cyclopropylinmidazo[1,2-a]pyridin-2-yl)methyl)-1H-[1,2,3]triazolo[4,5-c]pyridin-6-yl)-5,7-dimethylisoquinolin-1-amine]	> 1000
Cc1cc2c(N)nccc2c(C)c1CNc1cc(=O)n(Cc2cn3c(=O)n(C4CC4)ccc3n2)cn1 [Example 505, 2-((4-(((1-amino-5,7-dimethylisoquinolin-6-yl)methyl)amino)-6-oxopyrimidin-1(6H)-yl)methyl)-6-cyclopropylimidazo[1,2-c]pyrimidin-5(6H)-one]	> 1000

Further lines, results first:

EC50 [nM]	Structure (SMILES)
1 to 10	Cc1cc2c(N)nccc2c(C)c1CNc1cc(OCc2cccc(-n3ccccc3=O)c2)cnn1 [Example 435, 1-(3-(((6-(((1-amino-5,7-dimethylisoquinolin-6-yl)methyl)amino)pyridazin-4-yl)oxy)methyl)phenyl)pyridin-2(1H)-one]
< 1	Cc1cc2c(N)nccc2c(C)c1CNc1cc(OCc2ccc(Cn3ccccc3=O)cc2)cnn1 [Example 436, 1-(4-(((6-(((1-amino-5,7-dimethylisoquinolin-6-yl)methyl)amino)pyridazin-4-yl)oxy)methyl)benzyl)pyridin-2(1H)-one]
1 to 10	Cc1cc2c(N)nccc2c(C)c1CNc1cc(OCc2ccc(-n3ccccc3=O)cc2)cnn1 [Example 438, 1-(4-(((6-(((1-amino-5,7-dimethylisoquinolin-6-yl)methyl)amino)pyridazin-4-yl)oxy)methyl)phenyl)pyridin-2(1H)-one]
< 1	Cc1cc2c(N)nccc2c(C)c1CNc1cc(OCc2ccc(Cc3ccn(C)n3)cc2)cnn1 [Example 439, 5,7-dimethyl-6-(((5-((4-((1-methyl-1H-pyrazol-3-yl)methyl)benzyl)oxy)pyridazin-3-yl)amino)methyl)isoquinolin-1-amine]
< 1	Cc1cc2c(N)nccc2c(C)c1CNc1cc(OCc2ccc(Cc3cccn(C)c3=O)cc2)cnn1 [Example 440, 3-(4-(((6-(((1-amino-5,7-dimethylisoquinolin-6-yl)methyl)amino)pyridazin-4-yl)oxy)methyl)benzyl)-1-methylpyridin-2(1H)-one]
1 to 10	Cc1cc2c(N)nccc2c(C)c1CNc1cc(OCc2ccc(-n3ccnc3)cc2)cnn1 [Example 441, 6-(((5-((4-(1H-imidazol-1-yl)benzyl)oxy)pyridazin-3-yl)amino)methyl)-5,7-dimethylisoquinolin-1-amine]
1 to 10	Cc1cc2c(N)nccc2c(C)c1CNc1cc(OCc2cnn(-c3ccccc3)c2)cnn1 [Example 442, 5,7-dimethyl-6-(((5-((1-phenyl-1H-pyrazol-4-yl)methoxy)pyridazin-3-yl)amino)methyl)isoquinolin-1-amine]
100 to 1000	Cc1cc2c(N)nccc2c(C)c1CNc1cc(OCc2ccccc2)cnn1 [Example 443, 6-(((5-(benzyloxy)pyridazin-3-yl)amino)methyl)-5,7-dimethylisoquinolin-1-amine]
< 1	Cc1cc2c(N)nccc2c(C)c1CNc1cc(OCc2ccc(Cc3cccn4ccnc34)cc2)cnn1 [Example 444, 6-(((5-((4-(imidazo[1,2-a]pyridin-8-ylmethyl)benzyl)oxy)pyridazin-3-yl)amino)methyl)-5,7-dimethylisoquinolin-1-amine]
100 to 1000	Cc1cc2c(N)nccc2c(C)c1CNc1cc(OCc2ccc(Cn3cccn3)nc2)cnn1 [Example 445, 6-(((5-((6-((1H-pyrazol-1-yl)methyl)pyridin-3-yl)methoxy)pyridazin-3-yl)amino)methyl)-5,7-dimethylisoquinolin-1-amine]
< 1	Cc1cc2c(N)nccc2c(C)c1CNc1cc(OCc2ccc(Cn3cccn3)cn2)cnn1 [Example 446, 6-(((5-((5-((1H-pyrazol-1-yl)methyl)pyridin-2-yl)methoxy)pyridazin-3-yl)amino)methyl)-5,7-dimethylisoquinolin-1-amine]
100 to 1000	Cc1cc2c(N)nccc2c(C)c1CNc1cc(NCc2ccccc2)cnn1 [Example 448, N^3-((1-amino-5,7-dimethylisoquinolin-6-yl)methyl)-N5-benzylpyridazine-3,5-diamine]
> 1000	Cc1cc2c(N)nccc2c(C)c1CNc1cc(OCc2ccccc2)ncn1 [Example 449, 6-(((6-(benzyloxy)pyrimidin-4-yl)amino)methyl)-5,7-dimethylisoquinolin-1-amine]
1 to 10	Cc1cc2c(N)nccc2c(C)c1CNc1cc(OCc2ccc(Cn3cccn3)cc2)c(C(F)(F)F)nn1 [Example 450, 6-(((5-((4-((1H-pyrazol-1-yl)methyl)benzyl)oxy)-6-(trifluoromethyl)pyridazin-3-yl)amino)methyl)-5,7-dimethylisoquinolin-1-amine]
10 to 100	Cc1cc2c(N)nccc2c(C)c1CNc1cc(NCc2ccc3ncccc3c2)c(C(N)=O)nn1 [Example 452, 6-(((1-amino-5,7-dimethylisoquinolin-6-yl)methyl)amino)-4-((quinolin-6-ylmethyl)amino)pyridazine-3-carboxamide]
< 1	Cc1cc2c(N)nccc2c(C)c1CNc1cc(OCc2cn3cc(C4CC4)ccc3n2)nc(C(=O)O)n1 [Example 487, 4-(((1-amino-5,7-dimethylisoquinolin-6-yl)methyl)amino)-6-((6-cyclopropylimidazo[1,2-a]pyridin-2-yl)methoxy)pyrimidine-2-carboxylic acid]
10 to 100	Cc1cc2c(N)nccc2c(C)c1CNc1cc(OC(C)c2cn3nc(C4CC4)ccc3n2)ncn1 (stereo not shown) [Example 493, 6-(((6-(1-(6-cyclopropylimidazo[1,2-b]pyridazin-2-yl)ethoxy)pyrimidin-4-yl)amino)methyl)-5,7-dimethylisoquinolin-1-amine]
